Experimental findings from patent publication US20060063820A1, “2,6-dihalo-4-(3,3-dichloro-allyloxy)-benzylalcohole derivatives having insecticidal and acaricidal properties” (priority 2002, published 2006) are described below.

Each structure is given as a SMILES string. Where two headings read alike, the source gives them in different places. Some results are limits rather than exact numbers.

For one series, the system named is Heliothis virescens. The series is described as follows: Action against Heliothis virescens caterpillars (sprayed soybean plants). The format is in vivo. The conditions noted are these: 144 h, read-out: percentage reduction in population and percentage reduction in feeding damage (% activity). As to the method: Young soybean plants are sprayed with an aqueous emulsion spray mixture comprising 400 ppm of active ingredient. After the spray-coating has dried, the soybean plants are populated with 10 caterpillars of Heliothis virescens in the first stage and placed in a plastics container. Evaluation is made 6 days later. The percentage reduction in population and the percentage reduction in feeding damage (% activity) are determined by comparing the number of dead caterpillars and the feeding damage on the treated plants with that on the untreated plants.

The test system of the next series is Plutella xylostella. The series is described as follows: Action against Plutella xylostella caterpillars (sprayed cabbage plants). Type of series: in vivo. The settings on record: 72 h, read-out: percentage reduction in population and percentage reduction in feeding damage (% activity). As to the method: Young cabbage plants are sprayed with an aqueous emulsion spray mixture comprising 400 ppm of active ingredient. After the spray-coating has dried, the cabbage plants are populated with 10 caterpillars of Plutella xylostella in the third stage and placed in a plastics container. Evaluation is made 3 days later. The percentage reduction in population and the percentage reduction in feeding damage (% activity) are determined by comparing the number of dead caterpillars and the feeding damage on the treated plants with that on the untreated plants.

The test system of a further series is Spodoptera littoralis. The series is described as follows: Action against Spodoptera littoralis (sprayed soybean plants). The format is in vivo. The settings on record: 72 h, read-out: percentage reduction in population and percentage reduction in feeding damage (% activity). The method, then:
Young soybean plants are sprayed with an aqueous emulsion spray mixture comprising 400 ppm of test compound and, after the spray-coating has dried, the plants are populated with 10 caterpillars of Spodoptera littoralis in the first stage and then placed in a plastics container. 3 days later, the percentage reduction in population and the percentage reduction in feeding damage (% activity) are determined by comparing the number of dead caterpillars and the feeding damage on the treated plants with that on untreated plants.

The mark [1] stands for this setting: 400 ppm spray mixture, soybean plants, caterpillars in the first stage, evaluation 6 days later.
Setting [2] is: 400 ppm spray mixture, cabbage plants, caterpillars in the third stage, evaluation 3 days later.
The mark [3] stands for this setting: 400 ppm spray mixture, soybean plants, caterpillars in the first stage, 3 days later.

With `FC(F)(F)Oc1ccc(C2OCC(COCc3c(Cl)cc(OCC=C(Cl)Cl)cc3Cl)O2)cc1` (single isomer, unassigned) [Compound 2.3, 4-[2,6-dichloro-4-(3,3-dichloroallyloxy)-benzyloxymethyl]-2-(4-trifluoromethoxyphenyl)-[1,3]dioxolane], the inhibition at 400 ppm in the series on Heliothis virescens (setting [1]), with Plutella xylostella (setting [2]) and with Spodoptera littoralis (setting [3]) was over 80% in each case.

Consider `FC(F)(F)c1ccc(OCc2c(Cl)cc(OCC=C(Cl)Cl)cc2Cl)cc1` [Compound 1.2], for which the inhibition at 400 ppm with Heliothis virescens (setting [1]) and with Spodoptera littoralis (setting [3]) was over 80% throughout.

Consider `C#CCOc1cccc(OCc2c(Cl)cc(OCC=C(Cl)Cl)cc2Cl)c1` [Compound 1.3], for which the inhibition at 400 ppm in the series with Heliothis virescens, in the series with Plutella xylostella and in the series on Spodoptera littoralis was over 80% in each case.

Turning to `ClC(Cl)=CCOc1cc(Cl)c(COc2ccc3c(c2)OCO3)c(Cl)c1` [Compound 1.8], the inhibition at 400 ppm in the series on Plutella xylostella is over 80%.

Regarding `ClC(Cl)=CCOc1cc(Cl)c(COc2ccnc3cc(Cl)ccc23)c(Cl)c1` [Compound 1.12], the inhibition at 400 ppm with Heliothis virescens, in the series with Plutella xylostella and in the series on Spodoptera littoralis was over 80% in each case.

Regarding `FC(F)(F)c1cc(OCc2c(Cl)cc(OCC=C(Cl)Cl)cc2Cl)ccn1` [Compound 1.14], in the series with Plutella xylostella (setting [2]), the inhibition at 400 ppm was over 80%.

Take `Cc1nsc(Oc2cccc(OCc3c(Cl)cc(OCC=C(Cl)Cl)cc3Cl)c2)n1` [Compound 1.21]: the inhibition at 400 ppm in the series on Plutella xylostella (setting [2]) is over 80%.

Regarding `ClC(Cl)=CCOc1cc(Cl)c(COCC2COC(c3ccc(Br)s3)O2)c(Cl)c1` (stereo not shown) [Compound 2.8], the inhibition at 400 ppm with Heliothis virescens (setting [1]), in the series on Plutella xylostella (setting [2]) and in the series on Spodoptera littoralis (setting [3]) was over 80% throughout.

In the case of `FC1(F)Oc2cccc(C3OCC(COCc4c(Cl)cc(OCC=C(Cl)Cl)cc4Cl)O3)c2O1` (stereo not shown) [Compound 2.10], the inhibition at 400 ppm in the series on Heliothis virescens (setting [1]), in the series on Plutella xylostella (setting [2]) and in the series on Spodoptera littoralis (setting [3]) was over 80% each time.

Take `O=[N+]([O-])c1cc(C2OCC(COCc3c(Cl)cc(OCC=C(Cl)Cl)cc3Cl)O2)cs1` (stereo not shown) [Compound 2.12]: the inhibition at 400 ppm in the series with Heliothis virescens (setting [1]), in the series on Plutella xylostella (setting [2]) and in the series on Spodoptera littoralis (setting [3]) was over 80% throughout.

As for `Cn1nc(C2OCC(COCc3c(Cl)cc(OCC=C(Cl)Cl)cc3Cl)O2)c(C(F)(F)F)c1Cl` (stereo not shown) [Compound 2.15], the inhibition at 400 ppm with Heliothis virescens (setting [1]), in the series on Plutella xylostella (setting [2]) and in the series on Spodoptera littoralis (setting [3]) was over 80% throughout.

Take `N#Cc1c(Br)sc(C2OCC(COCc3c(Cl)cc(OCC=C(Cl)Cl)cc3Cl)O2)c1Cl` (stereo not shown) [Compound 2.17]: the inhibition at 400 ppm with Heliothis virescens (setting [1]) and in the series with Plutella xylostella (setting [2]) was over 80% throughout.

Turning to `CC(C)Oc1ccc(C2(C(=O)OCc3c(Cl)cc(OCC=C(Cl)Cl)cc3Cl)CC2)cc1` [Compound 3.12], the inhibition at 400 ppm with Heliothis virescens (setting [1]), in the series with Plutella xylostella (setting [2]) and in the series on Spodoptera littoralis (setting [3]) was over 80% each time.

Take `O=C(OCc1c(Cl)cc(OCC=C(Cl)Cl)cc1Cl)C1(c2ccc(OC(F)(F)F)cc2)CC1` [Compound 3.15]: the inhibition at 400 ppm in the series with Heliothis virescens (setting [1]), with Plutella xylostella (setting [2]) and with Spodoptera littoralis (setting [3]) was over 80% each time.

For `O=C(OCc1c(Cl)cc(OCC=C(Cl)Cl)cc1Cl)C1(c2ccc(F)cc2F)CC1` [Compound 3.16], the melting point fell in the range of 63 to 64 °C.

Compound `O=C(OCc1c(Cl)cc(OCC=C(Cl)Cl)cc1Cl)C1(c2ccc([N+](=O)[O-])cc2)CC1` [Compound 3.17] returned a melting point of 107 to 108 °C.

On to `C#COc1cccc(OCCOCc2c(Cl)cc(OCC=C(Cl)Cl)cc2Cl)c1` [Compound 4.4, 1,3-dichloro-5-(3,3-dichloroallyloxy)-2-[2-(3-ethynyloxy-phenoxy)-ethoxymethyl]-benzene], for which the inhibition at 400 ppm in the series on Heliothis virescens (setting [1]) and with Plutella xylostella (setting [2]) was over 80% each time.

In the case of `Cc1nsc(Oc2ccc(OCCOCc3c(Cl)cc(OCC=C(Cl)Cl)cc3Cl)cc2)n1` [Compound 4.10], the melting point is 95 to 97 °C.

On to `FC(F)(F)c1ccc(OCCOCc2c(Cl)cc(OCC=C(Cl)Cl)cc2Cl)nc1` [Compound 4.11], for which the inhibition at 400 ppm in the series on Heliothis virescens (setting [1]), in the series with Plutella xylostella (setting [2]) and in the series on Spodoptera littoralis (setting [3]) was over 80% each time.

Take `FC(F)(F)c1ccc(COCc2c(Cl)cc(OCC=C(Cl)Cl)cc2Cl)cc1` [Compound 5.6]: the inhibition at 400 ppm in the series on Heliothis virescens (setting [1]), in the series with Plutella xylostella (setting [2]) and in the series with Spodoptera littoralis (setting [3]) was over 80% in each case.

Consider `O=[N+]([O-])c1cccc(COCc2c(Cl)cc(OCC=C(Cl)Cl)cc2Cl)c1` [Compound 5.9, 1,3-dichloro-5-(3,3-dichloroallyloxy)-2-(3-nitrobenzyloxymethyl)-benzene], for which the inhibition at 400 ppm in the series on Heliothis virescens and in the series on Plutella xylostella was over 80% throughout.

`ClC(Cl)=CCOc1cc(Cl)c(COCc2cnc(Cl)c(Cl)c2)c(Cl)c1` [Compound 5.14]: the inhibition at 400 ppm in the series with Heliothis virescens, in the series on Plutella xylostella and with Spodoptera littoralis was over 80% each time.

Compound `O=C(NCc1c(Cl)cc(OCC=C(Cl)Cl)cc1Cl)Nc1ccccc1C(F)(F)F` [Compound 6.23, 1-[2,6-dichloro-4-(3,3-dichloroallyloxy)-benzyl]-3-(2-trifluoromethylphenyl)-urea] yielded a melting point of 215 to 216 °C. Further, in the series with Heliothis virescens (setting [1]), the inhibition at 400 ppm is over 80%. Also, in the series on Plutella xylostella (setting [2]), the inhibition at 400 ppm is over 80%. Moreover, in the series on Spodoptera littoralis (setting [3]), the inhibition at 400 ppm is over 80%.

For `COC(=O)COCc1c(Cl)cc(OCC=C(Cl)Cl)cc1Cl` [Compound 7.5], the inhibition at 400 ppm in the series with Heliothis virescens (setting [1]), in the series with Plutella xylostella (setting [2]) and with Spodoptera littoralis (setting [3]) was over 80% throughout.

Take `O=C(OCCOCc1c(Cl)cc(OCC=C(Cl)Cl)cc1Cl)c1ccc(C(F)(F)F)cc1` [Compound 8.11]: the inhibition at 400 ppm in the series on Spodoptera littoralis (setting [3]) was over 80%.

In the case of `O=C(OCCOCc1c(Cl)cc(OCC=C(Cl)Cl)cc1Cl)c1ccc(OC(F)(F)F)cc1` [Compound 8.12], the inhibition at 400 ppm in the series with Heliothis virescens (setting [1]), in the series with Plutella xylostella (setting [2]) and in the series with Spodoptera littoralis (setting [3]) was over 80% throughout.

For orientation: melting point means the temperature of the solid-liquid transition.
